Results published in patent publication US20240335465A1 (University of Virginia Patent Foundation, priority 2021, published 2024).

Tests used:
THP1 cells = assay: CellTiter 96 AQueous One Solution Cell Proliferation (MTS) assay; type: cell-based, human
Procedure: Cell Viability Assay: MTS assays were performed using the CellTiter 96 AQueous One Solution Cell Proliferation Assay (Promega) according to the manufacturer's instructions. […] 48 hours the later MTS assay was performed according the to manufacturer's protocol.

[1] = tested on: hRPE and U2OS-STING cells; assay: EdU incorporation assay; type: cell-based, human; conditions: 18 hours
Source text: EdU incorporated cells were detected by confocal microscopy after Click-iT® EdU labeling following the manufacturer's protocol (Click-iT™ EdU Alexa Fluor™ 594 Imaging Kit, Thermo Fisher Cat #C10339).

DDR signaling [2] = assay: DDR signaling immunoblot in HEK293 cells; type: cell-based, human; conditions: HEK293, 4 hours post transfection
U2OS-STING cells = assay: RIF1 and phospho-53BP1 foci immunofluorescence; type: cell-based, human; conditions: pretreated with cGAMP, then etoposide or camptothecin
Procedure: Immunofluorescence Staining: 16,500 adherent cells/cm^2 were plated on a gelatin coated 8-chamber slide (VWR, Catalogue #62407-296) and treated as indicated. Media was removed and cells were washed with 1×PBS with Ca^2+/Mg^2+ and fixed with 4% PFA for 20 minutes. Fixed cells were permeabilized with PBS+0.1% Triton-X and washed 3 times with PBS+0.1% Tween20. After treatment as indicated, non-adherent THP1 cells were collected by centrifugation, washed in cold PBS and fixed in PFA. Post-fixation, they were washed with PBS, spotted on gelatin coated “PTFE” Printed Slides (Electron Microscopy Sciences, Cat #63424-06), and air-dried. For γH2AX staining, permeabilized cells were blocked in Serum-free DAKO Protein Block (Agilent, Catalogue #X0909) for 1 hr at room temperature. Cells were incubated in primary antibody (γH2AX, 1:500; anti-HA, 1:100; Table 1) in DAKO antibody diluent at 4° C. overnight on a rocker platform. U2OS-STING cells undergoing Rad51 staining were first fixed in methanol for 20 minutes in −20° C., blocked for 1 hr with donkey block (2% normal donkey serum, 1% BSA, 0.1% Triton X 100, 0.05% Tween20, 0.05% Sodium Azide in PBS), then finally incubated in an anti-Rad51 antibody overnight at 4° C. (Bio-academia Cat #70-001, 1:6000 in 5% milk in TBST). […]

[3] = tested on: one-cell fertilized C57BL/6J embryos; assay: CRISPR/Cas9 mediated gene editing in mouse embryos; type: cell-based; conditions: Rosa26 locus, 1 fmole/embryo cGAMP
Procedure: CRISPR/Cas9 mediated gene editing in mouse embryos: Target sites were selected and gRNAs for these target sites were synthesized via in vitro transcription followed by column clean up and ethanol precipitation purification. One-cell fertilized C57BL/6J embryos were microinjected with a mixture of gRNA (50 ng/μl), ssODN (50 ng/μl, IDT, Table 2), and Cas9 protein (40 ng/μl, PNA Bio). […] Injected embryos were cultured to blastocysts then lysed to isolate genomic DNA. The edited locus (Rosa26) was amplified via PCR, and samples were indexed, pooled and run on a MiSeq Nano 2×250 Reagent Kit. Demultiplexed data was analyzed with CRISPResso (Pinello et al., 2016). Reads ambiguously categorized as “HDR/NHEJ” were manually sorted using a window 30 bp wide flanking the cut site, where reads identical to the expected HDR sequence were recategorized accordingly. Samples with fewer than 100 reads were excluded from analysis.

PARP = PARP activity assay; type: cell-based, human
Procedure: Post cGAMP treatment, cells were collected by centrifugation and washed with cold PBS once and resuspended in Cell Extraction Buffer. PARP activity was measured using the Chemiluminescent Assay Kit (R&D, Catalog Number: 4685-096-K) following manufacturer's protocol.

NAD^+ = assay: NAD+ quantification; type: cell-based, human; conditions: WT and STING−/− THP1, cGAMP
Nematostella vectensis = assay: DDR in starlet sea anemones; type: in vivo; conditions: whole animals; cGAMP in digitonin solution 10 minutes; doxorubicin 2 μM; 16 hours
Source text: Starlet sea anemones: Wild type, laboratory maintained, Self-sustaining Nematostella vectensis culture containing of 3-6 months old male and female animals (Putnam et al., 2007) was a kind gift from Timothy J. Jegla (Penn State University Department of Biology). They were maintained in 6-well plates containing water with Instant Ocean® Aquarium Sea Salt (50 gm/l) and fed brine shrimp. […] Permeabilization solution was removed and the animals returned to maintenance sea salt water. Doxorubicin was added to the maintenance sea salt water to a final concentration of 2 μM. 16 hours post treatment. N. vectensis were collected and washed once with cold PBS before the addition of 200 μl RIPA buffer. Samples were homogenized by sonication and centrifuged at 4° C. to remove debris. Soluble lysates were quantified for protein analysis by western blot.

DDR signaling [4] = assay: DDR signaling immunoblotting in THP1 cells
DDR signaling [5] = assay: DDR signaling immunoblotting in primary mouse embryonic fibroblasts

In the case of Nc1nc2c(ncn2[C@@H]2O[C@@H]3COP(=O)(O)O[C@H]4[C@@H](O)[C@H](n5cnc6c(N)ncnc65)O[C@@H]4COP(=O)(O)O[C@@H]2[C@@H]3O)c(=O)[nH]1 [cGAMP, cyclic guanosine monophosphate-adenosine monophosphate], the “sensitization to IR in rucaparib-pretreated cells” value (THP1 cells; WT THP1, 10 μM Rucaparib, 10Gy, 48 hours) is reported as “unable to further sensitize cells to IR”, the “sensitivity to ionizing radiation (cell survival)” value (THP1 cells; WT THP1, 10Gy, 48 hours) is reported as “more sensitive to ionizing radiation (IR)” and the THP1 cell proliferation (THP1 cells; WT THP1 post cGAMP treatment) is reported as “inhibited THP1 cell proliferation”. For the same compound, the EdU-positive cells [1] was “diminished count of hRPE and STING-U2OS EdU-positive cells”, the “phosphorylation status of H2AX, STING, and STAT2” value (DDR signaling [2]) was “respond normally to cGAMP stimulation” and the “RIF1 and phospho-53BP1 foci formation” value (U2OS-STING cells) was “augmented the RIF1 and phospho-53BP1 foci formation”. The “CRISPR/Cas9-mediated HDR editing” value [3] was “significantly diminished”, the “non-homologous end joining (NHEJ)” value [3] was “unaffected” and the total editing frequency [3] was “unaffected”. The “PARP enzymatic activity in cell lysates” value (PARP; THP1, cGAMP 6 hours, Rucaparib 10 μM, 6 hr) was “reduction in the PARP enzymatic activity”, the “STING dependence of cGAMP-induced reduction in PARP enzymatic activity” value (PARP; WT and STING−/− THP1) was “dependent on STING” and the “abundance of cellular NAD^+” value (NAD^+) was “significantly reduced the abundance of cellular NAD^+ in a STING-dependent manner”. The “TBK1 phosphorylation (pTBK1)” value (Nematostella vectensis) was “TBK1 phosphorylation”, the γH2AX (Nematostella vectensis) was “elevated levels of γH2AX” and the “cGAMP-mediated induction of γH2AX and pCHK2” value (DDR signaling [4]; IFNAR1 and STAT2 knockdown THP1 cells) was “failed to impede cGAMP-mediated induction of γH2AX and pCHK2”. The “activation of DDR by cGAMP (H2AX, ATM, CHK2 phosphorylation)” value (DDR signaling [4]; STING−/− THP1 cells, 16 hours) was “abrogated by the deletion of STING”, the “DDR activation (γH2AX, pCHK2)” value (DDR signaling [4]; THP1, LPS 500 ng/ml 6 hours, cGAMP 16 hours) was “activated the DDR” and the “ATR phosphorylation (pATR)” value (DDR signaling [4]; WT THP1) was “inducing ATR phosphorylation”. For the same compound, the “CHK1 activation (pCHK1)” value (DDR signaling [4]; WT THP1) was “neither activation of CHK1”, the “cGAMP-induced DDR signaling” value (DDR signaling [4]; cGAS−/− THP1 cells, 16 hours) was “proceeded normally in cGAS-deficient cells” and the “γH2AX in target THP1 cells incubated with conditioned media from cGAMP treated cells” value (DDR signaling [4]; conditioned media collected after 18 hours, 18 hours on target cells) was “failed to induce γH2AX”. The “cGAMP-induced DDR signaling” value (DDR signaling [4]; shTBK1 knockdown THP1 cells) was “substantially reduced cGAMP-induced DDR signaling”, the “cGAMP-induced H2AX phosphorylation” value (DDR signaling [5]; Ifnar1−/− or Stat2−/− primary MEFs) was “unimpaired” and the “activation of DDR marker γH2AX” value (DDR signaling [5]; Irf3−/− primary MEFs, 16 hours) was “proceeded normally”. The “activation of DDR by cGAMP (γH2AX)” value (DDR signaling [5]; Sting−/− primary MEFs, 16 hours) was “abrogated by the deletion of STING” and the “DDR activation (γH2AX)” value (DDR signaling [5]; WT primary MEF, Pam3CSK4 500 ng/ml 6 hours, HT-DNA 4 ug/6-well 6 hours, 5′ppp-dsRNA 0.5 μg/6 well 6 hours, cGAMP 16 hours) was “activated the DDR”.
